From US12012391B1, “9-(2-hydroxyquinoline-3-yl)-10-[3-(dimethylamino)propyl]-3,4,6,7,9,10-hexahydroacridine-1,8(2H,5H)-dione as an antimicrobial compound” (KING FAISAL UNIVERSITY, priority 2023, dated 2024)

Tests used:
Conditions in all cases: after 10, 20, 40 and 60 minutes at all dilutions 1:100 to 1:800
[1] = test system: E. Coli; experiment: Antimicrobial activity by agar dilution, E. Coli; type: cell-based, Escherichia coli
Experimental: (§1) The antimicrobial properties of the synthesized compound 9-(2-hydroxyquinoline-3-yl)-10-[3-(dimethylamino)propyl]-3,4,6,7,9,10-hexahydroacridine-1,8(2H,5H)-dione were studied by the method of agar dilution. Test solutions of each compound were prepared in a concentration of 1% using dimethylformamide as a solvent. Then they were diluted in a physiological solution to obtain the final experimental dilutions 1:100, 1:200, 1:400, and 1:800. The effect of these substances were compared with furacillin in a controllable study. The testing microbes used were gram positive bacteria St. aereus, gram negative bacteria E. Coli and Ps. aeruginosa, and Candida albicans fungi. The experiments used for this survey were meat-pentonlu agar (EPA) for cultivation of bacteria and Saburo environment for fungi. Each experiment used 1 ml of test solution on each plate 500 min. Add 2 drops of emulsified with microbes feel. All experimental samples were taken from the agar after 10, 20, 40, 60 minutes in the environment on the basis of Patrk planted. Bacteria were cultivated at a temperature of 37° C. for 1 day and the mushroom was kept in a thermostat for […] at a temperature of 28° C. Then the results were checked.

[2] = test system: Ps. aeruginosa; experiment: Antimicrobial activity by agar dilution, Ps. aeruginosa; type: cell-based, Pseudomonas aeruginosa
Experimental: as §1

[3] = test system: Candida albicans; experiment: Antimicrobial activity by agar dilution, Candida albicans; type: cell-based
Experimental: as §1

[4] = test system: St. aereus; experiment: Antimicrobial activity by agar dilution, St. aereus; type: cell-based, Staphylococcus aureus
Experimental: as §1

Measured: inhibition activity

CN(C)CCCN1C2=C(C(=O)CCC2)C(c2cc3ccccc3nc2O)C2=C1CCCC2=O [9-(2-hydroxyquinoline-3-yl)-10-[3-(dimethylamino)propyl]-3,4,6,7,9,10-hexahydroacridine-1,8(2H,5H)-dione]
highest inhibition activity: all assays above
